Data on three molecules can be found in patent publication US20120288885A1, “METHOD AND KIT FOR MEASURING ENZYMATIC ACTIVITIES OF VARIOUS CYTOCHROME P450 MOLECULE SPECIES COMPREHENSIVELY AND WITH HIGH EFFICIENCY” (NATIONAL INSTITUTE OF ADVANCED INDUSTRIAL SCIENCE AND …, priority 2009, published 2012).

The target in series [1] is T1, human CYP1A1 (Homo sapiens, UniProt P04798).
T1 construct: made in house; host or cells: E. coli DH5alpha, membrane fraction
T1 sequence (P04798 1-512): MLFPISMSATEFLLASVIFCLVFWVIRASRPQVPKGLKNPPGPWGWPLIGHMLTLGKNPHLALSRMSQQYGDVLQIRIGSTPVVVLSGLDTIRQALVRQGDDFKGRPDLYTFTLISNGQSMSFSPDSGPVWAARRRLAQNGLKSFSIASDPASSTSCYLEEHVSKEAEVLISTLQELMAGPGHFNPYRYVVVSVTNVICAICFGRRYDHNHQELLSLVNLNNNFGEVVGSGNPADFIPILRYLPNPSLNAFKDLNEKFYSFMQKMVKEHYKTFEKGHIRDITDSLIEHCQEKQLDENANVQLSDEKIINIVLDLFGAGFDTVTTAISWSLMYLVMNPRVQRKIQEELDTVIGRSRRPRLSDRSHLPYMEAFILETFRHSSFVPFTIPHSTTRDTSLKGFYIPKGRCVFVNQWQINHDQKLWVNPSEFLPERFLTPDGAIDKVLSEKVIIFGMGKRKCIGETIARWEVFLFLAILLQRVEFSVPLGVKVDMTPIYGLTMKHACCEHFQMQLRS
Briefly: Competitive assay between fluorogenic substrate (7-ER) and non-fluorogenic substrate using caged-G6P. It is filed as biochemical. As to conditions: benzopyrene 0.1 and 1 μM; 7-ER 0.1 to 1.5 μM. The procedure:
A competitive assay between a fluorogenic substrate (7-ER) and a non-fluorogenic substrate (benzopyrene) was conducted using caged-G6P. An aqueous solution obtained by mixing the following components was used as the reaction liquid: 50 μL of 1 M potassium phosphate buffer solution, 30 μL of 5 mM caged-G6P, 2.89 μL of 69.3 U/mL glucose-6-phosphate […], 15 μL of 100 mM magnesium chloride, 1 μL of 5 mM NADP aqueous solution, 10.25 μL of P450 membrane fractions (human CYP1A1), 5 μL of 0.1 M dithiothreitol, and 379.61 μL of ultrapure water. The 7-ER concentration was varied from 0.1 μM to 1.5 μM. The benzopyrene concentrations were 0.1 μM and 1 μM. After UV light irradiation, incubation was performed for 30 minutes to carry out the P450 enzymatic reaction. Thereafter, 25 μL of 30% trichloroacetic acid was added thereto to terminate the enzymatic reaction. By adding 500 μL of chloroform to the reaction liquid and stirring the mixture for 1 minute, the […] (7HR) generated by the reaction was extracted in chloroform. […] After centrifuging for 1 minute, the […] was transferred to a cuvette, and the fluorescence spectra thereof were measured under the following conditions. Excitation wavelength: 366 nm, fluorescence wavelength: 380 to 600 nm. The maximum fluorescence was used to quantify the 7HR. […]

For a further series, the target named is T2, CYP3A5 (Homo sapiens, UniProt P20815).
T2 construct: made in house; host or cells: E. coli membrane fraction (inferred from the pCW negative control and the general expression paragraph)
T2 sequence (P20815 whole entry): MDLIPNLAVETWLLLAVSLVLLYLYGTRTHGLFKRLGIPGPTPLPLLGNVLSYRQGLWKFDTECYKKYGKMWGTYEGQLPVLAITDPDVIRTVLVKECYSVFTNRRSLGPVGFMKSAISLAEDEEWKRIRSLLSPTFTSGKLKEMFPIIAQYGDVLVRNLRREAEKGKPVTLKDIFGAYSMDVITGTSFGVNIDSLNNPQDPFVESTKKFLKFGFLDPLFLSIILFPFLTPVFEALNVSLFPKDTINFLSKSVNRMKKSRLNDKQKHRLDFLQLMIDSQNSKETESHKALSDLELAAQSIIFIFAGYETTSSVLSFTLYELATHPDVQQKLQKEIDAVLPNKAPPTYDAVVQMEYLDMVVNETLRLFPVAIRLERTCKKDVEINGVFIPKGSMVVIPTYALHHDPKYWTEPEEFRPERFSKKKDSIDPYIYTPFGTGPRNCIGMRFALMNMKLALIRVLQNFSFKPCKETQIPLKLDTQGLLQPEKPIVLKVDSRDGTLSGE
It is filed as in vitro ADME. As for the experimental part:
Using a 96-well microplate, the activity of various human P450 molecular species in oxygen sensor/immobilized P450 toward capsaicin was evaluated. The response to a solution with a substrate was compared to the response to a solution without a substrate and the activity of each molecular species was standardized. CYP2C9, CYP1A2, CYP2D6, CYP3A4, CYP2B6, CYP2C19(1A,1B), CYP2E1, CYP1A1, CYP2C8, CYP2W1, CYP4X1, CYP17A1, CYP27A1, CYP51A1, CYP2A6, CYP2A13, CYP1B1, CYP2C18, CYP2J2, CYP3A5, CYP2R1 and CYP2B6 were used as the P450. Furthermore, a membrane fraction (pCW) derived from E. coli was used as a negative control without human P450. […] The longitudinal axis of FIG. 11 indicates the value obtained by dividing the value of the response with a substrate by the value of the response without a substrate (background oxygen consumption) and standardizing the obtained value. As is clear from the figure, various molecular species show activity toward each compound. […] This also indicates the possibility that activities of human P450 toward pharmaceutical compounds and like compounds can be detected in a parallel manner.

The target in series [2] is T1, human CYP1A1. Briefly: Substrate metabolic activity on immobilized P450/oxygen sensor vertically integrated chip (fluorescence response of oxygen sensor). In kind it is in vitro ADME. As to conditions: 0.5 mM chlortoluron. As for the experimental part: A ruthenium complex (Ru(dpp)3Cl2) doped sol solution was prepared as described in Anal. Chem. 75 (2003) 2407-2413 with small modifications as follows. TEOS (0.29 mL) was mixed with 0.612 mL of octyl-triEOS, 0.625 mL of ethanol, and 0.2 mL of 0.1 M HCl by stirring for 1 hour at room temperature. Then, 1.725 mL of ethanol was added to the solution to dilute the sol in order to improve the quality of the oxygen sensing film to be ultimately formed. The solution was further stirred for 1 hour. To prepare an Ru(dpp)3Cl2 doped sol, 100 μL of 2 mM Ru(dpp)3Cl2 in ethanol was mixed with 300 μL of the above-mentioned sol solution. This solution was capped and stirred for 30 min, and 10 μL thereof was pipetted into each well of the microplate. The microplate was stored in the dark at room temperature for gelling and aging for 6 days. In order to increase the hydrophilicity of the surface of the oxygen sensor to improve the attachment with hydrogel, the surface of the microarrays was modified with poly (vinyl acetate) (PVAC).
Agarose was dissolved in deionized water to form a 1.3% (w/w) solution at 60° C. This solution was cooled to about 38° C. […] The microarrays were kept in a refrigerator at 4° C. until use.
TEOS sol was prepared by mixing 0.5 mL of TEOS, 0.25 mL of deionized water, and 12.5 μL of 0.1 M HCl and stirring for 3 hours to form a homogeneous sol. The sol was diluted four times with deionized water. […]
In order to measure the substrate metabolic activities using an immobilized P450/oxygen sensor vertically integrated chip (i.e., a chip comprising an immobilized P450 and an oxygen sensor vertically integrated therein), a study was conducted using immobilized human CYP1A1 as the P450 and chlortoluron (a herbicide) as a substrate. […] After the addition of the substrate solution into the microarrays, the microplate was quickly placed onto the platform of a microplate reader for the fluorescence measurement. Fluorescence intensity was recorded every 5 min for 3 hours.

`c1ccc2c(c1)c1cccc3ccc4cccc2c4c31` [benzopyrene]: at human CYP1A1 [1], the “mode of inhibition of 7-ER metabolism (effect on initial reaction velocity)” value is “noncompetitive inhibitor”.

Consider `COc1cc(CNC(=O)CCCC/C=C/C(C)C)ccc1O` [capsaicin], for which the “oxygen sensor response normalized by the response toward a solution without a substrate (peak height, FIG. 11)” value at CYP3A5 is listed as “particularly high”. For `Cc1ccc(NC(=O)N(C)C)cc1Cl` [chlortoluron], the “change in fluorescence intensity of the oxygen sensing layer (oxygen consumption due to metabolic reaction)” value is given as “only a limited increase” on human CYP1A1 [2] (P450 encapsulated in Ludox silica gel); “no significant fluorescence increase” at human CYP1A1 [2] (P450 encapsulated in TEOS silica gel); “significantly increased” at human CYP1A1 [2] (P450 encapsulated in agarose gel, versus NADPH solution without substrate).
